The values that follow come from US12171856B2, “Use of salidroside derivative in external preparation for skin whitening” (SHANGHAI CHEERMORE BIOLOGICAL TECHNOLOGY CO., LTD, priority 2019, dated 2024).

In one data set the test system is Human melanocytes. The data set can be described thus: Inhibition of NGF/UV-induced melanin generation in human melanocytes (absorbance at 490 nm). It counts as cell-based. The settings on record: 60 h. The protocol:
(§1) Human melanocytes and tool melanocytes were used to conduct the experiment in this section. Human melanocytes and tool melanocytes were inoculated in a 96-well plate, with a plating density of 5,000 cells/well. After the cells adhered to a wall, nerve growth factor (NGF) was added to the culture and the culture was irradiated with UV to induce the generation of melanin, which simulated a melanin generation process in vivo. Then β-D-glucoside derivatives to be tested each were added at a final concentration of 100 μM to the cells, and the cells were further cultivated in an incubator at 37° C. and 5% CO2 for 60 h, where 3 replicates were set for each group. The cells were washed with pre-cooled phosphate buffered saline (PBS), then digested with trypsin, and centrifuged, and a resulting supernatant was discarded. The cells were lysed with a NaOH (1 mol/L) solution including 10% dimethyl sulfoxide (DMSO) in a 65° C. water bath to make melanin granules completely dissolved out, and the absorbance at 490 nm was determined with a microplate reader. Finally, the absorbance value was used to reflect a melanin content.
Human melanocytes and tool melanocytes were used to conduct the experiment in this section. Human melanocytes and tool melanocytes were inoculated in a 96-well plate, with a plating density of 5,000 cells/well. After the cells adhered to a wall, NGF was added to the culture and the culture was irradiated with UV to induce the generation of melanin, which simulated a melanin generation process in vivo. SP-037 was added to the cells at 6 concentrations of 0 μM, 12.5 μM, 25 μM, 50 μM, 100 μM, and 200 μM, and then the cells were further cultivated in an incubator at 37° C. and 5% CO2 for 60 h, where 5 replicates were set for each group. The cells were washed with pre-cooled PBS, then digested with trypsin, and centrifuged, and a resulting supernatant was discarded. The cells were lysed with a NaOH (1 mol/L) solution including 10% DMSO in a 65° C. water bath to make melanin granules completely dissolved out, and the absorbance at 490 nm was determined with a microplate reader. Finally, the absorbance value was used to reflect a melanin content.
Human melanocytes and tool melanocytes were used to conduct the experiment in this section. Human melanocytes and tool melanocytes were inoculated in a 96-well plate, with a plating density of 5,000 cells/well. […] The cells were lysed with a NaOH (1 mol/L) solution including 10% DMSO in a 65° C. water bath to make melanin granules completely dissolved out, and the absorbance at 490 nm was determined with a microplate reader. Finally, the absorbance value was used to reflect a melanin content.

In another data set the test system is tool melanocytes. Put plainly: Inhibition of NGF/UV-induced melanin generation in tool melanocytes (absorbance at 490 nm). It counts as cell-based. The settings on record: 60 h, FIG. 6. The protocol: as §1, with “The cells were washed with pre-cooled phosphate buffered saline (PBS), then digested with trypsin, and centrifuged, and a resulting supernatant was discarded.” left out
Human melanocytes and tool melanocytes were used to conduct the experiment in this section. […] The cells were lysed with a NaOH (1 mol/L) solution including 10% DMSO in a 65° C. water bath to make melanin granules completely dissolved out, and the absorbance at 490 nm was determined with a microplate reader. Finally, the absorbance value was used to reflect a melanin content. […]

The next data set relates to Kunming mice. Put plainly: Long-term toxicity test on mouse skin. The data set is classed as in vivo. The protocol: Kunming mice were used to conduct the experiment in this section. SP-037 was prepared into solutions with concentrations of 2.5% (mass to volume ratio), 5% (mass to volume ratio), and 10% (mass to volume ratio) using NS. A control group, a 2.5% dosage group, a 5% dosage group, and a 10% dosage group were set, separately. One mouse was used for the blank group, and two mice were used for each of the experimental groups. Application on the dorsal skin: the hair on the back of mice was removed by depilatory cream, and a drug was applied at a corresponding concentration on the bare skin every day, which lasted for 3 months. During the test period, pictures were taken and the body weight of mice were recorded regularly, and it was observed whether there were white spots and other skin irritation or poisoning phenomena.

For data set [1], the system named is arm skin of the volunteers. Put plainly: Human skin irritation test (patch test). It counts as in vivo. The settings on record: gel with 10% SP-037 in 2% sodium carboxymethyl cellulose. The protocol:
In order to further achieve the use of SP-037 in the field of skin care, it is necessary to ensure the safety of SP-037 first. In the experiment of this section, a gel (2% sodium carboxymethyl cellulose prepared with deionized water) with the main component of 10% SP-037 was prepared, then volunteers were recruited, and a patch test was conducted on the arm skin of the volunteers to evaluate the safety of SP-037.

Data set [2] deals with skin at the inner side of the arm of volunteers with dark skin. The data set can be described thus: Skin whitening effect in volunteers (Dermalab skin color probe, melanin and L*a*b values). It counts as in vivo, human. The protocol: A total of 33 volunteers with dark skin were recruited, and the 33 volunteers were 22 to 38 years old. The 33 volunteers were randomly divided into 7 groups, including: a blank control group: 3, an SP-037 group: 5; a VC group: 5; a kojic acid group: 5; a thiamidol group: 5; a hydroquinone group: 5; and a 377 group: 5. A blank gel and gels with the main components of SP-037, VC, kojic acid, thiamidol, hydroquinone, and 377 respectively were prepared. An inner side of the left arm of each volunteer in each group was washed and then evenly applied with a corresponding gel every day, which lasted for 4 weeks. The Dermalab instrument was used to determine the characteristics of skin at the inner side of the arm with a skin color test probe on day 0, day 14, and day 28 to obtain melanin and L*a*b values, and according to final statistical data, the whitening effect of each component was analyzed.

With `OC[C@H]1O[C@@H](OCCc2cc(O)cc(O)c2)[C@H](O)[C@@H](O)[C@@H]1O` [SP-037], the “effect of SP-037 on a melanin content” value in the data set on Human melanocytes (0-200 μM, human melanocytes and tool melanocytes (not separated in text), FIG. 5) is listed as “can significantly inhibit the generation of melanin at a cellular level”. Further, the “effects of β-D-glucoside derivatives on a melanin content” value in the data set with Human melanocytes (final concentration 100 μM, human melanocytes and tool melanocytes (not separated in text), FIG. 1) was “shows the optimal effect”. Moreover, the “inhibitory activity on in vitro simulated melanin generation compared with whitening positive drugs” value in the data set with Human melanocytes (human melanocytes, FIG. 6) is “significantly better than that of the positive drugs VC, kojic acid, and hydroquinone”. For the same compound, the “concentration showing an ideal effect on melanin generation” value with Human melanocytes (tested at 12.5-200 μM, human melanocytes and tool melanocytes, FIG. 5) stood at 50 µM. For the same compound, in the data set on tool melanocytes, the “inhibitory activity on melanin generation compared with whitening positive drugs” value was “significantly better than that of VC and kojic acid, but slightly inferior to that of hydroquinone”. In the data set with Kunming mice (2.5%, 5%, 10% (mass to volume) in NS applied daily on dorsal skin), the “white spots, skin irritation injuries or poisoning symptoms” value was “none of the mice has white spots, redness and swelling, and other skin irritation injuries, or poisoning symptoms”. Besides, in the data set with Kunming mice (2.5%, 5%, 10% (mass to volume) in NS applied daily on dorsal skin, FIG. 7 and FIG. 8), the “changes in the body weight and skin condition” value was “in line with the growth pattern of normal mice”. The “white spots, skin irritation and toxicity (conclusion of long-term toxicity test)” value in the data set on Kunming mice (at a dosage of 10% (mass to volume ratio)) was “will not cause white spots, skin irritation, and toxicity”. The “irritating pain, itching felt by volunteers during patch test” value in data set [1] was “no irritating pain, itching, or the like”. Moreover, in data set [1] (FIG. 9), the “sensitization to the skin (patch test)” value was “has no sensitization to the skin”. The “effect on melanin content in skin (skin melanin pigmentation)” value in data set [2] (gel applied daily for 4 weeks, day 0, 14, 28, FIG. 10) is recorded as “can significantly improve the skin melanin pigmentation”. Further, the “effect on skin brightness” value in data set [2] (gel applied daily for 4 weeks, day 0, 14, 28, FIG. 11) is “improve the skin brightness”. Besides, in data set [2] (gels applied daily for 4 weeks, FIG. 10 and FIG. 11), the “whitening effect compared with VC, kojic acid, thiamidol, hydroquinone and 377” value is “significantly better than that of raw materials VC, kojic acid, thiamidol, and hydroquinone currently on the market, but slightly inferior to that of 377”.
